From the NIST ThermoML archive (doi:10.1021/je1011423)
Numbers after ± are expanded uncertainties.

Settings: Crystal; thermal gravimetric analysis

Compound: O=[N+]([O-])c1cc([N+](=O)[O-])c(O)c(Cl)c1O [2-chloro-4,6-dinitroresorcinol]
- Normal melting temperature: 185.00 ± 0.01 °C
